Measurements as given in US20110178396A1, “Nicotinamide Derivatives” (CRC FOR BIOMEDICAL IMAGING DEVELOPMENT LTD., priority 2008, published 2011).

Test system: B16F0 melanoma tumour
Test: Biodistribution in B16 melanoma bearing mice
Type: in vivo, C57BL/6J mice
Conditions: B16 melanoma bearing mice
Protocol: Animal experiments were performed in compliance with the NHMRC Australian Code of Practice for the care and use of animals for scientific purposes. Female C57BL/6J black and BALB/c nude albino mice of 5 weeks age were obtained from the Animal Resources Centre, Western Australia. B16F0 murine melanoma cells were originally obtained from European Collection of Cell Cultures (UK) and A375 human amelanotic melanoma cells were originally obtained from American Type Culture Collection (USA). Before transplantation, B16F0 and A375 melanoma cells were maintained as a monolayer in RPMI culture medium supplemented with 10% foetal calf serum and antibiotics and passaged with trypsinisation. Early passages were frozen and stored in liquid nitrogen. Cells were passaged to P=10 and then discarded. Frozen aliquots were grown in a monolayer culture to between 80-95% confluence and for transplantation were trypsinised and washed with Ca^2+ and Mg^2+ free phosphate buffered saline (PBS). For inoculation, B16F0 melanoma cells were resuspended in Ca^2+ and Mg^2+ free PBS at 3 or 5×10^6 viable cells per ml and 0.1 ml was subcutaneously injected at the left flank of 6-7 weeks old C57BL/6J mice. Eleven days later, tumours could be palpated in >98% of inoculated animals. A375 human melanoma cells were resuspended at 1×10^7 viablecells per ml and 0.1 ml was injected subcutaneously at the left flank of 6 weeks old BALB/c nude mice and 25-26 days later tumours could be palpated with ˜60% of inoculated animals developing tumours.
Eleven days (B16F0 melanoma) and 25 days (A375 human melanoma) after tumour transplantation, the [^18F]nicotinamides (0.5-1.5 MBq, 100 μl) and [^123I]nicotinamide (0.37-0.74 MBq, 100 μl) derivatives were injected intravenously via the tail vein into mice (15-18 g). Time points of 1, 3, 6, 24, 48, 72 h after injection were chosen for determining the distribution of each compound in various organs and tissues for the iodine-123 labelled compounds and between 15 min and 6 hours (e.g. 15 min, 30 min, 1 h, 2 h, 4 h or 6 h) were chosen for the ^18F-labelled compounds. At defined times post injection, groups of mice (n=5) were weighed, sacrificed by CO2 administration followed by cervical dislocation and dissected. Selected organs were weighed and their radioactivity measured with a γ-counter. The remaining activity in the carcass was also determined in order to obtain the total activity in the mouse at defined time points. The fraction of injected activity (% ID) in the organ was calculated by comparison with suitable dilutions of the injected dose. Then, the radioactivity concentration in the organ (% ID/g) was found by dividing the % ID for each organ by the weight of the organ.

CCN(CC)CCNC(=O)c1cccnc1F [[^18F]MEL6, 2-Fluoro-N-[2-(diethylamino)ethyl]nicotinantide]
uptake BLOOD (15 min): 2.8 % ID/g | uptake BONE (15 min): 4.8 % ID/g | uptake BRAIN (15 min): 6.2 % ID/g | uptake EYES (15 min): 36.7 % ID/g | uptake GIT (15 min): 7.8 % ID/g | uptake HEART (15 min): 3.7 % ID/g | uptake KIDNEY (15 min): 16.4 % ID/g | uptake LIVER (15 min): 12.2 % ID/g | uptake LUNGS (15 min): 5.0 % ID/g | uptake MUSCLE (15 min): 4.0 % ID/g | uptake SKIN (15 min): 2.7 % ID/g | uptake SPLEEN (15 min): 11.8 % ID/g | uptake STOMACH (15 min): 14.7 % ID/g | uptake THYROID (15 min): 4.5 % ID/g | uptake TUMOUR (15 min): 10.6 % ID/g | uptake BLOOD (1 h): 0.9 % ID/g | uptake BONE (1 h): 3.4 % ID/g | uptake BRAIN (1 h): 1.6 % ID/g | uptake EYES (1 h): 38.0 % ID/g | uptake GIT (1 h): 7.1 % ID/g | uptake HEART (1 h): 1.2 % ID/g | uptake KIDNEY (1 h): 4.0 % ID/g | uptake LIVER (1 h): 4.9 % ID/g | uptake LUNGS (1 h): 1.5 % ID/g | uptake MUSCLE (1 h): 1.2 % ID/g | uptake SKIN (1 h): 1.0 % ID/g | uptake SPLEEN (1 h): 9.2 % ID/g | uptake STOMACH (1 h): 6.8 % ID/g | uptake THYROID (1 h): 2.2 % ID/g | uptake TUMOUR (1 h): 14.6 % ID/g | uptake BLOOD (3 h): 0.2 % ID/g | uptake BONE (3 h): 4.6 % ID/g | uptake BRAIN (3 h): 0.4 % ID/g | uptake EYES (3 h): 36.3 % ID/g | uptake GIT (3 h): 7.1 % ID/g | uptake HEART (3 h): 0.3 % ID/g | uptake KIDNEY (3 h): 0.8 % ID/g | uptake LIVER (3 h): 1.9 % ID/g | uptake LUNGS (3 h): 0.3 % ID/g | uptake MUSCLE (3 h): 0.3 % ID/g | uptake SKIN (3 h): 0.2 % ID/g | uptake SPLEEN (3 h): 2.5 % ID/g | uptake STOMACH (3 h): 1.9 % ID/g | uptake THYROID (3 h): 2.1 % ID/g | uptake TUMOUR (3 h): 17.3 % ID/g | uptake BLOOD (6 h): 0.1 % ID/g | uptake BONE (6 h): 5.6 % ID/g | uptake BRAIN (6 h): 0.1 % ID/g | uptake EYES (6 h): 27.4 % ID/g | uptake GIT (6 h): 3.6 % ID/g | uptake HEART (6 h): 0.2 % ID/g | uptake KIDNEY (6 h): 0.2 % ID/g | uptake LIVER (6 h): 1.0 % ID/g | uptake LUNGS (6 h): 0.2 % ID/g | uptake MUSCLE (6 h): 0.2 % ID/g | uptake SKIN (6 h): 0.9 % ID/g | uptake SPLEEN (6 h): 0.5 % ID/g | uptake STOMACH (6 h): 0.7 % ID/g | uptake THYROID (6 h): 3.2 % ID/g | uptake TUMOUR (6 h): 4.8 % ID/g
